From patent publication US20200323991A1, “PBD CONJUGATES FOR TREATING DISEASES” (ENDOCYTE, INC., priority 2016, published 2020) come the findings set out here.

The subject of one experiment is KB tumor. As to the kind of experiment: Antitumor activity in large KB tumor model. The format is in vivo, mice. As to conditions: for KB tumor size compared to untreated control: 0.5 μmol/kg SIW for two weeks. The protocol:
Female Balb/c nu/nu mice were fed ad libitum with folate-deficient chow (Harlan diet #TD01013) for the duration of the experiment. KB tumor cells were inoculated subcutaneously at the right flank of each mouse. Mice were dosed after the tumors reached an average of 100 and 180 mm^3 through the lateral tail vein under sterile conditions in a volume of […] of phosphate-buffered saline (PBS).
Growth of each s.c. tumor was followed by measuring the tumor two times per week. Tumors were measured in two perpendicular directions using Vernier calipers, and their volumes were calculated as 0.5×L×W^2, where L=measurement of longest axis in mm and W=measurement of axis perpendicular to L in mm.

The next experiment has as its system KB cells. Format: cell-based, human. As to conditions: read-out: IC50 value, 3H-thymidine incorporation. On the procedure: The conjugates described herein were evaluated using an in vitro cytotoxicity assay that predicted the ability of the drug to inhibit the growth of the corresponding targeted cells, such as, but not limited to the following
It is to be understood that the choice of cell type can be made on the basis of the susceptibility of those selected cells to the drug that forms the conjugate, and the relative expression of the cell surface receptor or target antigen. The test conjugates were conjugates of a cell surface receptor or target antigen binding compound and PBD prodrugs, poly-PBD prodrugs, and mixed PBDs, as described herein. The test cells were exposed to varying concentrations of the conjugates, and optionally also in the absence or presence of at least a 100-fold excess of the unconjugated cell surface receptor or target antigen binding compound for competition studies to assess activity as being specific to the cell surface receptor or target antigen.
KB cells were seeded in individual 24-well Falcon plates and allowed to form nearly confluent monolayers overnight in folate free Roswell Park Memorial Institute (FFRPMI)/Heat-Inactivated Fetal Calf Serum (HIFCS). Thirty minutes prior to the addition of folate-conjugate, spent medium was aspirated from all wells and replaced with either fresh FFRPMI or FFRPMI supplemented with 100 μM folic acid. […] Cells were pulsed for 2 h at 37° C., rinsed 4 times with 0.5 mL of medium and then chased in 1 mL of fresh medium up to 72 h. Spent medium was aspirated from all wells and replaced with fresh medium containing 5 μCi/mL of ^3H-thymidine. Following a 2 h incubation at 37° C., cells were washed 3 times with 0.5 mL of PBS and then treated with 0.5 mL of ice-cold 5% trichloroacetic acid per well. After 15 min, the trichloroacetic acid was aspirated and the cells solubilized by the addition of 0.5 mL of 0.25 N sodium hydroxide for 15 min at room temperature. Four hundred and fifty […] of each solubilized sample were transferred to scintillation vials containing 3 mL of Ecolume scintillation cocktail and counted in a liquid scintillation counter. Final results were expressed as the percentage of ^3H-thymidine incorporation relative to untreated controls.
Background: Uptake of a labelled nucleoside into DNA is a usual measure of proliferation.

[1] abbreviates: 0.5 μmol/kg, once a week for two weeks.
The mark [2] stands for this setting: with excess folate (100 μM folic acid).
Setting [3] is: without excess folate, 2 h pulse, chase up to 72 h.

Each structure is given as a SMILES string. Where two headings read alike, the source gives them in different places.

Regarding `C=C1C[C@H]2[C@H](O)N(C(=O)OCC(C)SSC[C@H](CC(=O)[C@H](CC(=O)O)NC(=O)[C@H](CC(=O)O)NC(=O)[C@H](CCCNC(=N)N)NC(=O)[C@H](CC(=O)O)NC(=O)CC[C@H](NC(=O)c3ccc(NCc4cnc5nc(N)[nH]c(=O)c5n4)cc3)C(=O)O)C(=O)O)c3cc(OCCCCCOc4cc5c(cc4OC)C(=O)N4CC(=C)C[C@H]4[C@H](O)N5C(=O)OCC(C)SSC[C@H](NC(=O)[C@H](CC(=O)O)NC(=O)[C@H](CC(=O)O)NC(=O)[C@H](CCCNC(=N)N)NC(=O)[C@H](CC(=O)O)NC(=O)CC[C@H](NC(=O)c4ccc(NCc5cnc6nc(N)[nH]c(=O)c6n5)cc4)C(=O)O)C(=O)O)c(OC)cc3C(=O)N2C1` (stereo partly drawn) [Conjugate 2], the cures in the experiment on KB tumor (setting [1]) worked out at 100%. Besides, the IC50 came to 16 nM in the experiment on KB cells (setting [2]) and 0.14 nM in the experiment on KB cells (setting [3]).
The corresponding values for `C=C1C[C@H]2C=Nc3cc(OCCCCCOc4cc(N)c(C(=O)N5CC(=C)C[C@H]5C5OCCN5C(=O)OCC(C)(C)SSCCC(=O)NCCNC(=O)CCOCCOCCOCCOCCOCCOCCOCCOCCOCCOCCOCCOCCOCCOCCOCCOCCOCCOCCOCCOCCOCCOCCOCCOCCOCCOCCOCCOCCOCCOCCOCCOCCOCCOCCOCCOCCNC(=O)CCN5C(=O)CC(SC[C@H](NC(=O)[C@H](CC(=O)O)NC(=O)[C@H](CC(=O)O)NC(=O)[C@H](CCCNC(=N)N)NC(=O)[C@H](CC(=O)O)NC(=O)CC[C@H](NC(=O)c6ccc(NCc7cnc8nc(N)[nH]c(=O)c8n7)cc6)C(=O)O)C(=O)O)C5=O)cc4OC)c(OC)cc3C(=O)N2C1` (stereo partly drawn) [Conjugate 7] are 100%, 5 nM and 0.13 nM.
With `C=C1C[C@H]2C=Nc3cc(OCCCCCOc4cc(NC(=O)OCCSSC(C)(C)[C@H](NC(=O)[C@H](CC(=O)O)NC(=O)[C@H](CC(=O)O)NC(=O)[C@H](CCCNC(=N)N)NC(=O)[C@H](CC(=O)O)NC(=O)CC[C@H](NC(=O)c5ccc(NCc6cnc7nc(N)[nH]c(=O)c7n6)cc5)C(=O)O)C(=O)O)c(C(=O)N5CC(=C)C[C@H]5/C=N/OC)cc4OC)c(OC)cc3C(=O)N2C1` [Conjugate 32], the results for the IC50 in the experiment with KB cells (setting [2]) and in the experiment with KB cells (setting [3]) were 57 nM and 2 nM, respectively.
On the same counts, the results for `C=C1C[C@H]2C=Nc3cc(OCCCCCOc4cc(N)c(C(=O)N5CC(=C)C[C@H]5C5OCCN5C(=O)OCC(C)(C)SSCCC(=O)NCCNC(=O)CCCCCN5C(=O)CC(SC[C@H](NC(=O)[C@H](CC(=O)O)NC(=O)[C@H](CC(=O)O)NC(=O)[C@H](CCCNC(=N)N)NC(=O)[C@H](CC(=O)O)NC(=O)CC[C@H](NC(=O)c6ccc(NCc7cnc8nc(N)[nH]c(=O)c8n7)cc6)C(=O)O)C(=O)O)C5=O)cc4OC)c(OC)cc3C(=O)N2C1` (stereo partly drawn) [Conjugate 22] are 1.4 nM and 0.14 nM.
As for `C=C1C[C@H]2C=Nc3cc(OCCCCCOc4cc(NC(=O)OCCCSSC[C@H](NC(=O)[C@H](CC(=O)O)NC(=O)[C@H](CC(=O)O)NC(=O)[C@H](CCCNC(=N)N)NC(=O)[C@H](CC(=O)O)NC(=O)CC[C@H](NC(=O)c5ccc(NCc6cnc7nc(N)[nH]c(=O)c7n6)cc5)C(=O)O)C(=O)O)c(C(=O)N5CC(=C)C[C@H]5/C=N/OC)cc4OC)c(OC)cc3C(=O)N2C1` [Conjugate 31], the IC50 in the experiment on KB cells (setting [3]) came out at 0.647 nM.
With `C=C1C[C@H]2C=Nc3cc(OCCCCCOc4cc5c(cc4OC)C(=O)N4CC(=C)C[C@H]4C(O)N5C(=O)OCC(C)(C)SSCCC(=O)NCCNC(=O)CCOCCOCCOCCOCCNC(=O)CCN4C(=O)CC(SC[C@H](NC(=O)[C@H](CC(=O)O)NC(=O)[C@H](CC(=O)O)NC(=O)[C@H](CCCNC(=N)N)NC(=O)[C@H](CC(=O)O)NC(=O)CC[C@H](NC(=O)c5ccc(NCc6cnc7nc(N)[nH]c(=O)c7n6)cc5)C(=O)O)C(=O)O)C4=O)c(OC)cc3C(=O)N2C1` (stereo partly drawn) [Conjugate 24], the IC50 in the experiment with KB cells (setting [2]) came out at 1.8 nM; with KB cells (setting [3]), 0.079 nM.
In the case of `C=C1C[C@H]2C=Nc3cc(OCCCCCOc4cc(NC(=O)OCC(C)(C)SSCCC(=O)NCCNC(=O)CCOCCOCCOCCOCCOCCOCCOCCOCCOCCOCCOCCOCCNC(=O)CCN5C(=O)CC(SC[C@H](NC(=O)[C@H](CC(=O)O)NC(=O)[C@H](CC(=O)O)NC(=O)[C@H](CCCNC(=N)N)NC(=O)[C@H](CC(=O)O)NC(=O)CC[C@H](NC(=O)c6ccc(NCc7cnc8nc(N)[nH]c(=O)c8n7)cc6)C(=O)O)C(=O)O)C5=O)c(C(=O)N5CC(=C)C[C@H]5/C=N/OC)cc4OC)c(OC)cc3C(=O)N2C1` (stereo partly drawn) [Conjugate 20], the “KB tumor size compared to untreated control” value with KB tumor was “decreased KB tumor size”. For the same molecule, the IC50 was determined as 0.7 nM in the experiment on KB cells (setting [2]) and 0.04 nM in the experiment with KB cells (setting [3]).
For the molecule `C=C1C[C@H]2C=Nc3cc(OCCCCCOc4cc(NC(=O)OCC(C)SSC[C@H](NC(=O)CCOCCOCCOCCOCCNC(=O)[C@H](CC(=O)O)NC(=O)[C@H](CC(=O)O)NC(=O)[C@H](CCCNC(=N)N)NC(=O)[C@H](CC(=O)O)NC(=O)CC[C@H](NC(=O)c5ccc(NCc6cnc7nc(N)[nH]c(=O)c7n6)cc5)C(=O)O)C(=O)O)c(C(=O)N5CC(=C)C[C@H]5/C=N/OC)cc4OC)c(OC)cc3C(=O)N2C1` (stereo partly drawn) [Conjugate 27], the IC50 in the experiment on KB cells (setting [2]) amounted to 6.1 nM; in the experiment on KB cells (setting [3]) it was 0.091 nM.
For the molecule `C=C1C[C@H]2C=Nc3cc(OCCCCCOc4cc(N)c(C(=O)N5CC(=C)C[C@H]5C5OCCN5C(=O)OCC(C)(C)SSCCC(=O)NCCNC(=O)CCOCCOCCOCCOCCOCCOCCOCCOCCOCCOCCOCCOCCNC(=O)CCN5C(=O)CC(SC[C@H](NC(=O)[C@H](CC(=O)O)NC(=O)[C@H](CC(=O)O)NC(=O)[C@H](CCCNC(=N)N)NC(=O)[C@H](CC(=O)O)NC(=O)CC[C@H](NC(=O)c6ccc(NCc7cnc8nc(N)[nH]c(=O)c8n7)cc6)C(=O)O)C(=O)O)C5=O)cc4OC)c(OC)cc3C(=O)N2C1` (stereo partly drawn) [Conjugate 8], the cures with KB tumor (0.2 μmol/kg, once a week for two weeks) was 100%. The IC50 in the experiment on KB cells (setting [2]) was 0.3 nM; in the experiment on KB cells (setting [3]), 0.055 nM.
Consider `C=C1CC(/C=N/OC)N(C(=O)c2cc(OC)c(OCCCCCOc3cc4c(cc3OC)C(=O)N3CC(=C)C[C@H]3C=N4)cc2NC(=O)OCC(C)(C)SSCCC(=O)NCCNC(=O)CCN2C(=O)CC(SC[C@H](NC(=O)[C@H](CC(=O)O)NC(=O)[C@H](CC(=O)O)NC(=O)[C@H](CCCNC(=N)N)NC(=O)[C@H](CC(=O)O)NC(=O)CC[C@H](NC(=O)c3ccc(NCc4cnc5nc(N)[nH]c(=O)c5n4)cc3)C(=O)O)C(=O)O)C2=O)C1` (stereo partly drawn) [Conjugate 18], for which the “KB tumor size compared to untreated control” value with KB tumor is “decreased KB tumor size”. The IC50 in the experiment with KB cells (setting [2]) turned out to be 2 nM; in the experiment with KB cells (setting [3]) it was 0.065 nM.
`C=C1C[C@H]2C=Nc3cc(OCCCCCOc4cc(N)c(C(=O)N5CC(=C)C[C@H]5C5OCCN5C(=O)OCC(C)SSC[C@H](NC(=O)[C@H](CC(=O)O)NC(=O)[C@H](CC(=O)O)NC(=O)[C@H](CCCNC(=N)N)NC(=O)[C@H](CC(=O)O)NC(=O)CC[C@H](NC(=O)c5ccc(NCc6cnc7nc(N)[nH]c(=O)c7n6)cc5)C(=O)O)C(=O)O)cc4OC)c(OC)cc3C(=O)N2C1` (stereo partly drawn) [Conjugate 4]: in the experiment on KB tumor (setting [1]), the cures was 100%. Also, the values for the IC50 in the experiment on KB cells (setting [2]) and with KB cells (setting [3]) were 6 nM and 0.049 nM, respectively.
In the experiment with KB tumor (setting [1]), `C=C1C[C@H]2C=Nc3cc(OCCCCCOc4cc(N)c(C(=O)N5CC(=C)C[C@H]5C5OCCN5C(=O)OCC(C)(C)SSCCC(=O)NCCNC(=O)CCOCCOCCOCCOCCNC(=O)CCN5C(=O)CC(SC[C@@H](NC(=O)[C@H](CCC(=O)NC[C@H](O)[C@@H](O)[C@H](O)[C@H](O)CO)NC(=O)[C@@H](CCC(=O)O)NC(=O)[C@H](CCC(=O)NC[C@H](O)[C@@H](O)[C@H](O)[C@H](O)CO)NC(=O)[C@@H](CCC(=O)O)NC(=O)[C@H](CCC(=O)NC[C@H](O)[C@@H](O)[C@H](O)[C@H](O)CO)NC(=O)CC[C@H](NC(=O)c6ccc(NCc7cnc8nc(N)[nH]c(=O)c8n7)cc6)C(=O)O)C(=O)O)C5=O)cc4OC)c(OC)cc3C(=O)N2C1` (stereo partly drawn) [Conjugate 6] came in with a complete responses of 50% and a cures of 50%. In addition, the IC50 with KB cells (setting [2]) stood at 3 nM. In addition, in the experiment with KB cells (setting [3]), the IC50 turned out to be 0.048 nM.
With `C=C1C[C@H]2C=Nc3cc(OCCCCCOc4cc(NC(=O)OCCSSC[C@@H](C)NC(=O)CCOCCOCCOCCOCCNC(=O)[C@H](CC(=O)O)NC(=O)[C@H](CC(=O)O)NC(=O)[C@H](CCCNC(=N)N)NC(=O)[C@H](CC(=O)O)NC(=O)CC[C@H](NC(=O)c5ccc(NCc6cnc7nc(N)[nH]c(=O)c7n6)cc5)C(=O)O)c(C(=O)N5CC(=C)C[C@H]5/C=N/OC)cc4OC)c(OC)cc3C(=O)N2C1` [Conjugate 26], the IC50 amounted to 1.6 nM with KB cells (setting [2]) and 0.028 nM in the experiment with KB cells (setting [3]).
